Numbers after ± are expanded uncertainties.
What was measured:
[1] = xn = mol fraction of the nth substance listed; conditions: 101.33 kPa, Liquid; for speed of sound: Anton Paar DSA 48; for mass density: Vibrating tube method
[2] = excess molar enthalpy (molar enthalpy of mixing); xn = mol fraction of the nth substance listed; conditions: 298.15 K, 101.33 kPa, Liquid, Flow calorimetry
[3] = 101.33 kPa, Liquid; for speed of sound: Anton Paar DSA 48; for mass density: Vibrating tube method

For `CC(C)CCl` [1-chloro-2-methylpropane] + CC1CCCO1, the speed of sound ([1]; 298.15 K, x2 = 0.0515) was 1085.4 ± 1.4 m/s, the speed of sound ([1]; 298.15 K, x2 = 0.1006) was 1091.3 ± 1.4 m/s and the speed of sound ([1]; 298.15 K, x2 = 0.2026) was 1103.8 ± 1.4 m/s. For the same compound, the speed of sound ([1]; 298.15 K, x2 = 0.3059) was 1116.6 ± 1.4 m/s, the speed of sound ([1]; 298.15 K, x2 = 0.4062) was 1129.1 ± 1.4 m/s and the speed of sound ([1]; 298.15 K, x2 = 0.505) was 1141.4 ± 1.4 m/s. The speed of sound ([1]; 298.15 K, x2 = 0.6022) was 1153.5 ± 1.4 m/s, the speed of sound ([1]; 298.15 K, x2 = 0.7035) was 1166.1 ± 1.4 m/s and the speed of sound ([1]; 298.15 K, x2 = 0.8012) was 1178.2 ± 1.4 m/s. For the same compound, the speed of sound ([1]; 298.15 K, x2 = 0.9099) was 1191.6 ± 1.4 m/s, the speed of sound ([1]; 298.15 K, x2 = 0.9492) was 1196.4 ± 1.4 m/s and the mass density ([1]; 298.15 K, x2 = 0.0515) was 870.05 ± 0.45 kg/m3. For the same compound, the mass density ([1]; 298.15 K, x2 = 0.1006) was 869.23 ± 0.45 kg/m3, the mass density ([1]; 298.15 K, x2 = 0.2026) was 867.39 ± 0.45 kg/m3 and the mass density ([1]; 298.15 K, x2 = 0.3059) was 865.41 ± 0.45 kg/m3. It also gave a mass density ([1]; 298.15 K, x2 = 0.4062) of 863.41 ± 0.45 kg/m3, a mass density ([1]; 298.15 K, x2 = 0.505) of 861.34 ± 0.45 kg/m3 and a mass density ([1]; 298.15 K, x2 = 0.6022) of 859.23 ± 0.45 kg/m3. For the same compound, the mass density ([1]; 298.15 K, x2 = 0.7035) was 856.92 ± 0.45 kg/m3, the mass density ([1]; 298.15 K, x2 = 0.8012) was 854.57 ± 0.45 kg/m3 and the mass density ([1]; 298.15 K, x2 = 0.9099) was 851.75 ± 0.45 kg/m3. It also gave a mass density ([1]; 298.15 K, x2 = 0.9492) of 850.66 ± 0.45 kg/m3, a speed of sound ([1]; 313.15 K, x2 = 0.0553) of 1023 ± 1.4 m/s and a speed of sound ([1]; 313.15 K, x2 = 0.1014) of 1028.6 ± 1.4 m/s. It also gave a speed of sound ([1]; 313.15 K, x2 = 0.1992) of 1040.5 ± 1.4 m/s, a speed of sound ([1]; 313.15 K, x2 = 0.3) of 1052.7 ± 1.4 m/s and a speed of sound ([1]; 313.15 K, x2 = 0.4072) of 1065.7 ± 1.4 m/s. For the same compound, the speed of sound ([1]; 313.15 K, x2 = 0.5015) was 1077 ± 1.4 m/s, the speed of sound ([1]; 313.15 K, x2 = 0.605) was 1089.3 ± 1.4 m/s and the speed of sound ([1]; 313.15 K, x2 = 0.7022) was 1100.8 ± 1.4 m/s. The speed of sound ([1]; 313.15 K, x2 = 0.8) was 1112.4 ± 1.4 m/s, the speed of sound ([1]; 313.15 K, x2 = 0.8967) was 1123.8 ± 1.4 m/s and the speed of sound ([1]; 313.15 K, x2 = 0.9491) was 1130 ± 1.4 m/s. It also gave a mass density ([1]; 313.15 K, x2 = 0.0553) of 852.78 ± 0.45 kg/m3, a mass density ([1]; 313.15 K, x2 = 0.1014) of 852.08 ± 0.45 kg/m3 and a mass density ([1]; 313.15 K, x2 = 0.1992) of 850.48 ± 0.44 kg/m3. It also gave a mass density ([1]; 313.15 K, x2 = 0.3) of 848.74 ± 0.44 kg/m3, a mass density ([1]; 313.15 K, x2 = 0.4072) of 846.78 ± 0.44 kg/m3 and a mass density ([1]; 313.15 K, x2 = 0.5015) of 844.98 ± 0.44 kg/m3. For the same compound, the mass density ([1]; 313.15 K, x2 = 0.605) was 842.9 ± 0.44 kg/m3, the mass density ([1]; 313.15 K, x2 = 0.7022) was 840.83 ± 0.44 kg/m3 and the mass density ([1]; 313.15 K, x2 = 0.8) was 838.61 ± 0.44 kg/m3. The mass density ([1]; 313.15 K, x2 = 0.8967) was 836.35 ± 0.44 kg/m3, the mass density ([1]; 313.15 K, x2 = 0.9491) was 835.09 ± 0.44 kg/m3 and the excess molar enthalpy ([2]; x2 = 0.06) was -0.00789 ± 0.000239 kcal/mol. For the same compound, the excess molar enthalpy ([2]; x2 = 0.109) was -0.016 ± 0.000478 kcal/mol, the excess molar enthalpy ([2]; x2 = 0.21) was -0.0315 ± 0.000478 kcal/mol and the excess molar enthalpy ([2]; x2 = 0.309) was -0.0416 ± 0.000717 kcal/mol. For the same compound, the excess molar enthalpy ([2]; x2 = 0.411) was -0.0504 ± 0.000717 kcal/mol, the excess molar enthalpy ([2]; x2 = 0.511) was -0.0535 ± 0.000717 kcal/mol and the excess molar enthalpy ([2]; x2 = 0.609) was -0.0526 ± 0.000717 kcal/mol. The excess molar enthalpy ([2]; x2 = 0.707) was -0.0468 ± 0.000717 kcal/mol, the excess molar enthalpy ([2]; x2 = 0.806) was -0.0361 ± 0.000478 kcal/mol and the excess molar enthalpy ([2]; x2 = 0.904) was -0.0201 ± 0.000478 kcal/mol. The excess molar enthalpy ([2]; x2 = 0.954) was -0.0103 ± 0.000239 kcal/mol.
`CC(C)CCl` [1-chloro-2-methylpropane] gave a speed of sound ([3]; 298.15 K) of 1079.2 ± 1.4 m/s, a mass density ([3]; 298.15 K) of 870.89 ± 0.44 kg/m3 and a mass density ([3]; 313.15 K) of 853.56 ± 0.43 kg/m3. It also gave a speed of sound ([3]; 333.15 K) of 1016.3 ± 1.4 m/s.
In the case of `CCC(C)Cl` (centres undefined) [2-chlorobutane] + CC1CCCO1, the speed of sound ([1]; 298.15 K, x2 = 0.049) is reported as 1073.2 ± 1.4 m/s, the speed of sound ([1]; 298.15 K, x2 = 0.1006) is reported as 1080.1 ± 1.4 m/s and the speed of sound ([1]; 298.15 K, x2 = 0.2041) is reported as 1093.8 ± 1.4 m/s. The speed of sound ([1]; 298.15 K, x2 = 0.3034) was 1107.1 ± 1.4 m/s, the speed of sound ([1]; 298.15 K, x2 = 0.4055) was 1120.8 ± 1.4 m/s and the speed of sound ([1]; 298.15 K, x2 = 0.5026) was 1134 ± 1.4 m/s. It also gave a speed of sound ([1]; 298.15 K, x2 = 0.6005) of 1147.3 ± 1.4 m/s, a speed of sound ([1]; 298.15 K, x2 = 0.6989) of 1160.9 ± 1.4 m/s and a speed of sound ([1]; 298.15 K, x2 = 0.8022) of 1175.2 ± 1.4 m/s. It also gave a speed of sound ([1]; 298.15 K, x2 = 0.8991) of 1188.7 ± 1.4 m/s, a speed of sound ([1]; 298.15 K, x2 = 0.9472) of 1195.3 ± 1.4 m/s and a mass density ([1]; 298.15 K, x2 = 0.049) of 866.71 ± 0.45 kg/m3. For the same compound, the mass density ([1]; 298.15 K, x2 = 0.1006) was 866.01 ± 0.45 kg/m3, the mass density ([1]; 298.15 K, x2 = 0.2041) was 864.52 ± 0.45 kg/m3 and the mass density ([1]; 298.15 K, x2 = 0.3034) was 862.99 ± 0.45 kg/m3. The mass density ([1]; 298.15 K, x2 = 0.4055) was 861.31 ± 0.45 kg/m3, the mass density ([1]; 298.15 K, x2 = 0.5026) was 859.61 ± 0.45 kg/m3 and the mass density ([1]; 298.15 K, x2 = 0.6005) was 857.81 ± 0.45 kg/m3. The mass density ([1]; 298.15 K, x2 = 0.6989) was 855.91 ± 0.45 kg/m3, the mass density ([1]; 298.15 K, x2 = 0.8022) was 853.81 ± 0.45 kg/m3 and the mass density ([1]; 298.15 K, x2 = 0.8991) was 851.69 ± 0.45 kg/m3. It also gave a mass density ([1]; 298.15 K, x2 = 0.9472) of 850.55 ± 0.44 kg/m3, a speed of sound ([1]; 313.15 K, x2 = 0.0565) of 1013.7 ± 1.4 m/s and a speed of sound ([1]; 313.15 K, x2 = 0.101) of 1019.3 ± 1.4 m/s. The speed of sound ([1]; 313.15 K, x2 = 0.201) was 1031.9 ± 1.4 m/s, the speed of sound ([1]; 313.15 K, x2 = 0.3045) was 1045.1 ± 1.4 m/s and the speed of sound ([1]; 313.15 K, x2 = 0.4039) was 1057.9 ± 1.4 m/s. It also gave a speed of sound ([1]; 313.15 K, x2 = 0.5074) of 1071.3 ± 1.4 m/s, a speed of sound ([1]; 313.15 K, x2 = 0.6044) of 1083.9 ± 1.4 m/s and a speed of sound ([1]; 313.15 K, x2 = 0.7042) of 1097 ± 1.4 m/s. The speed of sound ([1]; 313.15 K, x2 = 0.8034) was 1110 ± 1.4 m/s, the speed of sound ([1]; 313.15 K, x2 = 0.8988) was 1122.6 ± 1.4 m/s and the speed of sound ([1]; 313.15 K, x2 = 0.9456) was 1128.8 ± 1.4 m/s. It also gave a mass density ([1]; 313.15 K, x2 = 0.0565) of 849.52 ± 0.44 kg/m3, a mass density ([1]; 313.15 K, x2 = 0.101) of 848.97 ± 0.44 kg/m3 and a mass density ([1]; 313.15 K, x2 = 0.201) of 847.69 ± 0.44 kg/m3. The mass density ([1]; 313.15 K, x2 = 0.3045) was 846.28 ± 0.44 kg/m3, the mass density ([1]; 313.15 K, x2 = 0.4039) was 844.81 ± 0.44 kg/m3 and the mass density ([1]; 313.15 K, x2 = 0.5074) was 843.19 ± 0.44 kg/m3. For the same compound, the mass density ([1]; 313.15 K, x2 = 0.6044) was 841.58 ± 0.44 kg/m3, the mass density ([1]; 313.15 K, x2 = 0.7042) was 839.79 ± 0.44 kg/m3 and the mass density ([1]; 313.15 K, x2 = 0.8034) was 837.9 ± 0.44 kg/m3. For the same compound, the mass density ([1]; 313.15 K, x2 = 0.8988) was 835.97 ± 0.44 kg/m3, the mass density ([1]; 313.15 K, x2 = 0.9456) was 835.03 ± 0.44 kg/m3 and the excess molar enthalpy ([2]; x2 = 0.057) was -0.00454 ± 0.000239 kcal/mol. It also gave an excess molar enthalpy ([2]; x2 = 0.104) of -0.01 ± 0.000239 kcal/mol, an excess molar enthalpy ([2]; x2 = 0.201) of -0.0198 ± 0.000478 kcal/mol and an excess molar enthalpy ([2]; x2 = 0.298) of -0.0277 ± 0.000478 kcal/mol. The excess molar enthalpy ([2]; x2 = 0.398) was -0.033 ± 0.000478 kcal/mol, the excess molar enthalpy ([2]; x2 = 0.497) was -0.0356 ± 0.000478 kcal/mol and the excess molar enthalpy ([2]; x2 = 0.597) was -0.0359 ± 0.000478 kcal/mol. For the same compound, the excess molar enthalpy ([2]; x2 = 0.696) was -0.0323 ± 0.000478 kcal/mol, the excess molar enthalpy ([2]; x2 = 0.799) was -0.0251 ± 0.000478 kcal/mol and the excess molar enthalpy ([2]; x2 = 0.901) was -0.0141 ± 0.000239 kcal/mol. It also gave an excess molar enthalpy ([2]; x2 = 0.954) of -0.00717 ± 0.000239 kcal/mol.
